Test results: patent publication US11986493B2 (University of Pittsburgh—Of the Commonwealth System of …, priority 2013, dated 2024)

Tested on: subjects with pulmonary hypertension (WHO group I PAH, WHO group III PH)
Assay: Right heart catheterization: right heart/pulmonary artery hemodynamics, thermodilution cardiac output, PVR and SVR after inhaled NO and nebulized nitrite
Format: in vivo, human
Experimental: A total of 6 subjects with a confirmed diagnosis of pulmonary hypertension and meeting all inclusion/exclusion criteria were enrolled in the study which entailed a single right heart catheterization. The study population consisted of subjects with WHO group I PAH (n=3) and subjects with WHO group III PH (n=3) which received the dose escalation paradigm:
During the study right heart/pulmonary artery hemodynamics were measured as well as noninvasive systemic blood pressure monitoring and simultaneous RV echocardiography. Subjects were tested for the changes in pulmonary vascular resistance (PVR) measured by right heart catheterization and using thermodilution cardiac output measurement at time zero, at times 15, 30 and 45 minutes after completion of each nebulization dose.
Following right heart catheterization, the patient was stabilized for 20 minutes. Baseline blood collections and hemodynamic measurements were performed, followed by treatment with 40 ppm inhaled NO gas for […] with repeat hemodynamic measurements performed.
After stopping inhaled NO gas, a single dose of sildenafil was given if patients were on background sildenafil therapy at previously prescribed doses. 45-minutes after sildenafil dose baseline hemodynamics were performed.
Subjects were monitored carefully during and after the study treatment.
The study was conducted at the 3rd FL Catheterization Laboratory at Presbyterian Hospital of the University of Pittsburgh Medical Center (UPMC). Baseline vasoreactivity was recorded after Inhaled NO at 40 ppm for […]. […] Subjects were instructed to breathe as calmly, and deeply as possible until no more mist was formed in the nebulizer chamber. Subjects were also instructed to hold their breath for approximately 10 seconds after inhalation to allow the study drug to reach deep into the lungs.

[1] = Patient 1, nitrite 45 mg inhaled, 15 min
[2] = Patient 1, nitrite 45 mg inhaled, 30 min
[3] = Patient 1, nitrite 45 mg inhaled, 45 min
[4] = Patient 1, nitrite 45 mg inhaled, 60 min
[5] = Patient 1, nitrite 90 mg inhaled, 15 min
[6] = Patient 1, nitrite 90 mg inhaled, 30 min
[7] = Patient 1, nitrite 90 mg inhaled, 45 min
[8] = Patient 1, nitrite 90 mg inhaled, 60 min
[9] = Patient 2, nitrite 45 mg inhaled, 15 min
[10] = Patient 2, nitrite 45 mg inhaled, 30 min
[11] = Patient 2, nitrite 45 mg inhaled, 45 min
[12] = Patient 2, nitrite 45 mg inhaled, 60 min
[13] = Patient 2, nitrite 90 mg inhaled, 15 min
[14] = Patient 2, nitrite 90 mg inhaled, 30 min
[15] = Patient 2, nitrite 90 mg inhaled, 45 min
[16] = Patient 2, nitrite 90 mg inhaled, 60 min
[17] = Patient 3, nitrite 45 mg inhaled, 15 min
[18] = Patient 3, nitrite 45 mg inhaled, 30 min
[19] = Patient 3, nitrite 45 mg inhaled, 45 min
[20] = Patient 3, nitrite 45 mg inhaled, 60 min
[21] = Patient 3, nitrite 90 mg inhaled, 15 min
[22] = Patient 3, nitrite 90 mg inhaled, 30 min
[23] = Patient 3, nitrite 90 mg inhaled, 45 min
[24] = Patient 3, nitrite 90 mg inhaled, 60 min

O=NO [nitrite, sodium nitrite]
CI [1]: 2.47
CO [1]: 4.77
PA sat [1]: 66
PAD [1]: 35
PAS [1]: 93
PCWP [1]: 11
PVR [1]: 9.09
PVR/SVR [1]: 0.58
RA [1]: 9
RVD [1]: 8
RVS [1]: 98
SVR [1]: 15.66
TPR [1]: 11.39
mPAP [1]: 54.34
CI [2]: 2.65
CO [2]: 5.12
PA sat [2]: 68
PAD [2]: 36
PAS [2]: 98
PCWP [2]: 7
PVR [2]: 9.70
PVR/SVR [2]: 0.64
RA [2]: 10
RVD [2]: 10
RVS [2]: 94
SVR [2]: 15.24
TPR [2]: 11.07
mPAP [2]: 56.67
CI [3]: 2.51
CO [3]: 4.85
PA sat [3]: 63
PAD [3]: 38
PAS [3]: 100
PCWP [3]: 9
PVR [3]: 10.24
PVR/SVR [3]: 0.66
RA [3]: 9
RVD [3]: 9
RVS [3]: 95
SVR [3]: 15.53
TPR [3]: 12.10
mPAP [3]: 58.67
CI [4]: 3.11
CO [4]: 6.01
PA sat [4]: 62
PAD [4]: 36
PAS [4]: 98
PCWP [4]: 7
PVR [4]: 8.27
PVR/SVR [4]: 0.63
RA [4]: 9
RVD [4]: 9
RVS [4]: 94
SVR [4]: 13.15
TPR [4]: 9.43
mPAP [4]: 56.67
CI [5]: 2.93
CO [5]: 5.65
PA sat [5]: 64
PAD [5]: 32
PAS [5]: 92
PCWP [5]: 2
PVR [5]: 8.85
PVR/SVR [5]: 0.68
RA [5]: 3
RVD [5]: 3
RVS [5]: 96
SVR [5]: 13.10
TPR [5]: 9.20
mPAP [5]: 52.01
CI [6]: 2.99
CO [6]: 5.77
PA sat [6]: 61
PAD [6]: 32
PAS [6]: 92
PCWP [6]: 2
PVR [6]: 8.67
PVR/SVR [6]: 0.68
RA [6]: 4
RVD [6]: 3
RVS [6]: 91
SVR [6]: 12.83
TPR [6]: 9.01
mPAP [6]: 52.01
CI [7]: 3.22
CO [7]: 6.22
PA sat [7]: 62
PAD [7]: 31
PAS [7]: 90
PCWP [7]: 2
PVR [7]: 7.83
PVR/SVR [7]: 0.67
RA [7]: 3
RVD [7]: 3
RVS [7]: 92
SVR [7]: 11.63
TPR [7]: 8.15
mPAP [7]: 50.67
CI [8]: 3.14
CO [8]: 6.06
PA sat [8]: 62
PAD [8]: 30
PAS [8]: 90
PCWP [8]: 3
PVR [8]: 7.76
PVR/SVR [8]: 0.61
RA [8]: 3
RVD [8]: 2
RVS [8]: 88
SVR [8]: 12.65
TPR [8]: 8.25
mPAP [8]: 50.01
CI [9]: 3.67
CO [9]: 7.08
PAD [9]: 19
PAS [9]: 57
PCWP [9]: 8
PVR [9]: 3.34
PVR/SVR [9]: 0.25
RA [9]: 6
SVR [9]: 13.28
TPR [9]: 4.47
mPAP [9]: 31.67
CI [10]: 3.88
CO [10]: 7.48
PAD [10]: 22
PAS [10]: 64
PCWP [10]: 9
PVR [10]: 3.61
PVR/SVR [10]: 0.30
RA [10]: 6
SVR [10]: 11.99
TPR [10]: 4.81
mPAP [10]: 36.01
CI [11]: 3.93
CO [11]: 7.58
PAD [11]: 21
PAS [11]: 62
PCWP [11]: 8
PVR [11]: 3.52
PVR/SVR [11]: 0.29
RA [11]: 3
SVR [11]: 12.23
TPR [11]: 4.57
mPAP [11]: 34.67
CI [12]: 3.89
CO [12]: 7.5
PAD [12]: 21
PAS [12]: 64
PCWP [12]: 8
PVR [12]: 3.65
PVR/SVR [12]: 0.32
RA [12]: 4
SVR [12]: 11.38
TPR [12]: 4.71
mPAP [12]: 35.34
CI [13]: 3.81
CO [13]: 7.35
PAD [13]: 20
PAS [13]: 57
PCWP [13]: 8
PVR [13]: 3.31
PVR/SVR [13]: 0.25
RA [13]: 2
SVR [13]: 13.06
TPR [13]: 4.40
mPAP [13]: 32.34
CI [14]: 4.60
CO [14]: 8.87
PAD [14]: 22
PAS [14]: 60
PCWP [14]: 6
PVR [14]: 3.23
PVR/SVR [14]: 0.31
RA [14]: 3
SVR [14]: 10.41
TPR [14]: 3.91
mPAP [14]: 34.67
CI [15]: 4.19
CO [15]: 8.09
PAD [15]: 21
PAS [15]: 62
PCWP [15]: 7
PVR [15]: 3.42
PVR/SVR [15]: 0.28
RA [15]: 3
SVR [15]: 12.12
TPR [15]: 4.29
mPAP [15]: 34.67
CI [16]: 4.56
CO [16]: 8.8
PAD [16]: 22
PAS [16]: 68
PCWP [16]: 6
PVR [16]: 3.56
PVR/SVR [16]: 0.33
RA [16]: 5
RVD [16]: 3
RVS [16]: 62
SVR [16]: 10.76
TPR [16]: 4.24
mPAP [16]: 37.34
CI [17]: 3.19
CO [17]: 6.63
PAD [17]: 19
PAS [17]: 80
PCWP [17]: 14
PVR [17]: 3.82
PVR/SVR [17]: 0.45
RA [17]: 12
SVR [17]: 8.55
TPR [17]: 5.93
mPAP [17]: 39.34
CI [18]: 3.08
CO [18]: 6.4
PAD [18]: 20
PAS [18]: 70
PCWP [18]: 15
PVR [18]: 3.39
PVR/SVR [18]: 0.37
RA [18]: 10
SVR [18]: 9.22
TPR [18]: 5.73
mPAP [18]: 35.67
CI [19]: 3.17
CO [19]: 6.6
PAD [19]: 20
PAS [19]: 74
PCWP [19]: 14
PVR [19]: 3.64
PVR/SVR [19]: 0.42
RA [19]: 13
SVR [19]: 8.64
TPR [19]: 5.76
mPAP [19]: 38.01
CI [20]: 3.07
CO [20]: 6.39
PAD [20]: 20
PAS [20]: 70
PCWP [20]: 14
PVR [20]: 3.55
PVR/SVR [20]: 0.40
RA [20]: 13
SVR [20]: 8.92
TPR [20]: 5.74
mPAP [20]: 36.67
CI [21]: 3.69
CO [21]: 7.67
PAD [21]: 19
PAS [21]: 69
PCWP [21]: 13
PVR [21]: 2.96
PVR/SVR [21]: 0.40
RA [21]: 12
SVR [21]: 7.48
TPR [21]: 4.65
mPAP [21]: 35.67
CI [22]: 2.41
CO [22]: 5.01
PAD [22]: 17
PAS [22]: 73
PCWP [22]: 11
PVR [22]: 4.92
PVR/SVR [22]: 0.39
RA [22]: 10
SVR [22]: 12.51
TPR [22]: 7.12
mPAP [22]: 35.67
CI [23]: 2.94
CO [23]: 6.11
PAD [23]: 19
PAS [23]: 71
PCWP [23]: 12
PVR [23]: 3.98
PVR/SVR [23]: 0.42
RA [23]: 11
SVR [23]: 9.55
TPR [23]: 5.95
mPAP [23]: 36.34
CI [24]: 3.34
CO [24]: 6.95
PAD [24]: 20
PAS [24]: 72
PCWP [24]: 14
PVR [24]: 3.36
PVR/SVR [24]: 0.36
RA [24]: 9
RVD [24]: 8
RVS [24]: 71
SVR [24]: 9.31
TPR [24]: 5.37
